Measurements from patent US20070128217A1 (priority 2003, published 2007).

Assays:
[1] = tested on: rabbit serum obtained by immunizing a rabbit with the SARS-CoV strain Frankfurt 1; format: binding; parameters: Binding of a rabbit serum to linear peptides / Binding of a rabbit serum to looped peptides / Rabbit serum linear peptides / Rabbit serum looped peptides / Binding of a rabbit serum to linear peptides of protein N of SARS-CoV Urbani (Rabbit serum linear peptides) / Binding of a rabbit serum to looped/cyclic peptides of protein N of SARS-CoV Urbani (Rabbit serum looped peptides): unit not given here
[2] = tested on: control sera (pooled serum of ten healthy LUMC hospital workers; commercial negative donor pooled serum from the Dutch bloodbank); format: binding, human; parameters: Binding of Control serum LUMC to linear peptides / Binding of Control serum Blood-bank to linear peptides / Binding of Control serum LUMC to looped peptides / Binding of Control Serum Blood-Bank to Looped peptides / Binding of Control serum LUMC to linear peptides of the protein M of SARS-CoV Urbani / Binding of Control serum Blood-bank to linear peptides of the protein M of SARS-CoV Urbani / Binding of Control serum LUMC to looped peptides of the protein M of SARS-CoV Urbani / Binding of Control Serum Blood-Bank to Looped peptides of the protein M of SARS-CoV Urbani: unit not given here
[3] = tested on: antibodies in sera from SARS patients (sera 1a, 1b, 2, 6, 37, 62, London, SARS-yellow, SARS-green); format: binding, human; parameters: Binding of serum 6 to linear peptides of protein X1 of SARS-CoV Urbani / Binding of serum 37 to linear peptides of protein X1 of SARS-CoV Urbani / Binding of serum 6 to looped/cyclic peptide (PEPSCAN-ELISA) / Binding of serum 37 to looped/cyclic peptide (PEPSCAN-ELISA) / Binding of serum 37 to looped/cyclic peptides of protein X1 of SARS-CoV Urbani / Binding of serum 6 to linear peptides of protein X2 / Binding of serum 37 to linear peptides of protein X2 / Binding of serum 37 to looped/cyclic peptides of protein X2 of SARS-CoV Urbani / Binding of serum 6 to linear peptides of protein M of SARS-CoV Urbani / Binding of serum 37 to linear peptides of protein M of SARS-CoV Urbani / Binding of serum 6 to looped/cyclic peptides of protein M of SARS-CoV Urbani / Binding of serum 37 to looped/cyclic peptides of protein M of SARS-CoV Urbani / Binding of serum 6 to linear peptides of protein X3 of SARS-CoV Urbani / Binding of serum 37 to linear peptides of protein X3 of SARS-CoV Urbani / Binding of serum 37 to looped/cyclic peptides of protein X3 of SARS-CoV Urbani / Binding of serum 6 to linear peptides of protein X4 of SARS-CoV Urbani / Binding of serum 37 to linear peptides of protein X4 of SARS-CoV Urbani / Binding of serum 37 to looped/cyclic peptides of protein X4 of SARS-CoV Urbani / Binding of serum 6 to linear peptides of protein X5 of SARS-CoV Urbani / Binding of serum 37 to linear peptides of protein X5 of SARS-CoV Urbani / Binding of serum 37 to looped/cyclic peptides of protein X5 of SARS-CoV Urbani / Binding of serum 6 to linear peptides of protein N of SARS-CoV Urbani / Binding of serum 37 to linear peptides of protein N of SARS-CoV Urbani / Binding of serum 6 to linear peptide (PEPSCAN-ELISA) / Binding of serum 1a to looped/cyclic peptides of protein N of SARS-CoV Urbani / Binding of serum 1b to looped/cyclic peptides of protein N of SARS-CoV Urbani / Binding of serum 2 to looped/cyclic peptides of protein N of SARS-CoV Urbani / Binding of serum 6 to looped/cyclic peptides of protein N of SARS-CoV Urbani / Binding of serum 37 to looped/cyclic peptides of protein N of SARS-CoV Urbani / Binding of serum 62 to looped/cyclic peptides of protein N of SARS-CoV Urbani / Binding of serum London to looped/cyclic peptides of protein N of SARS-CoV Urbani / Binding of serum SARS-green to looped/cyclic peptides of protein N of SARS-CoV Urbani: unit not given here

Row | Sequence | Binding of a rabbit serum to linear peptides [1] | Binding of a rabbit serum to looped peptides [1] | Binding of Control Serum Blood-Bank to Looped peptides [2] | Binding of Control serum Blood-bank to linear peptides [2] | Binding of Control serum LUMC to linear peptides [2] | Binding of Control serum LUMC to looped peptides [2] | Binding of serum 1a to linear peptides of protein X1 of SARS-CoV Urbani [3] | Binding of serum 1a to looped/cyclic peptide (PEPSCAN-ELISA) [3] | Binding of serum 1b to linear peptides of protein X1 of SARS-CoV Urbani [3] | Binding of serum 1b to looped/cyclic peptide (PEPSCAN-ELISA) [3] | Binding of serum 2 to linear peptides of protein X1 of SARS-CoV Urbani [3] | Binding of serum 2 to looped/cyclic peptide (PEPSCAN-ELISA) [3] | Binding of serum 6 to linear peptides of protein X1 of SARS-CoV Urbani [3] | Binding of serum 6 to looped/cyclic peptide (PEPSCAN-ELISA) [3] | Binding of serum 37 to linear peptides of protein X1 of SARS-CoV Urbani [3] | Binding of serum 37 to looped/cyclic peptide (PEPSCAN-ELISA) [3] | Binding of serum 62 to linear peptides of protein X1 of SARS-CoV Urbani [3] | Binding of serum 62 to looped/cyclic peptide (PEPSCAN-ELISA) [3] | Binding of serum London to linear peptides of protein X1 of SARS-CoV Urbani [3] | Binding of serum London to looped/cyclic peptide (PEPSCAN-ELISA) [3] | also measured
1 | AFLAVFQSATKIIAL | 0.2 | 0.8 | 0.7 | 0.5 | 0.5 | 0.6 | 0.7 | 0.5 | 0.4 | 0.4 | 0.5 | 0.5 | 0.4 | 1.3 | 0.6 | 0.6 | 0.5 | 0.6 | 0.2 | 1.6 | Binding of serum SARS-green to linear peptides of protein X1 of SARS-CoV Urbani [3]: 0.3; Binding of serum SARS-green to looped/cyclic peptide (PEPSCAN-ELISA) [3]: 0.3; Binding of serum SARS-yellow to linear peptides of protein X1 of SARS-CoV Urbani [3]: 0.3; Binding of serum SARS-yellow to looped/cyclic peptide (PEPSCAN-ELISA) [3]: 0.6
2 | AFQHQNSKKTTKLVV | – | – | 0.7 | 0.6 | 0.7 | 0.6 | – | – | – | – | – | – | – | – | – | – | – | – | – | – | Recognition of the peptide by the rabbit serum [1]: recognized; Binding of serum 1a to linear peptides of protein X2 [3]: 0.6; Binding of serum 1a to looped/cyclic peptides of protein X2 of SARS-CoV Urbani [3]: 0.5; Binding of serum 1b to linear peptides of protein X2 [3]: 0.5; Binding of serum 1b to looped/cyclic peptides of protein X2 of SARS-CoV Urbani [3]: 0.5; Binding of serum 2 to linear peptides of protein X2 [3]: 0.6; Binding of serum 2 to looped/cyclic peptides of protein X2 of SARS-CoV Urbani [3]: 0.4; Binding of serum 6 to linear peptides of protein X2 [3]: 0.9; Binding of serum 6 to looped/cyclic peptides of protein X2 of SARS-CoV Urbani [3]: 0.4; Binding of serum 37 to linear peptides of protein X2 [3]: 0.8; Binding of serum 37 to looped/cyclic peptides of protein X2 of SARS-CoV Urbani [3]: 0.5; Binding of serum 62 to linear peptides of protein X2 [3]: 0.4; Binding of serum 62 to looped/cyclic peptides of protein X2 of SARS-CoV Urbani [3]: 0.6; Binding of serum London to linear peptides of protein X2 [3]: 0.4; Binding of serum London to looped/cyclic peptides of protein X2 of SARS-CoV Urbani [3]: 0.2; Binding of serum SARS-green to linear peptides of protein X2 [3]: 0.2; Binding of serum SARS-green to looped/cyclic peptides of protein X2 of SARS-CoV Urbani [3]: 0.3; Binding of serum SARS-yellow to linear peptides of protein X2 [3]: 0.7; Binding of serum SARS-yellow to looped/cyclic peptides of protein X2 of SARS-CoV Urbani [3]: 0.5
3 | AGMEAQFLYLYALIY | 0.1 | 0.6 | 0.5 | 0.5 | 0.6 | 0.6 | 0.7 | 0.5 | 0.6 | 0.4 | 0.6 | 0.4 | 0.4 | 0.3 | 0.5 | 0.5 | 0.4 | 0.6 | 0.2 | 0.2 | Binding of serum SARS-green to linear peptides of protein X1 of SARS-CoV Urbani [3]: 0.1; Binding of serum SARS-green to looped/cyclic peptide (PEPSCAN-ELISA) [3]: 0.2; Binding of serum SARS-yellow to linear peptides of protein X1 of SARS-CoV Urbani [3]: 0.2; Binding of serum SARS-yellow to looped/cyclic peptide (PEPSCAN-ELISA) [3]: 0.3
